Drawing on ChEMBL document CHEMBL1154287, “Phenylaminopyrimidines as inhibitors of Janus kinases (JAKs)” (Bioorg Med Chem Lett, 2009), this text covers IC50 for 34 compounds.

In test [1] the target is T1, Tyrosine-protein kinase JAK3 (Homo sapiens, UniProt P52333).
T1 sequence (P52333 whole entry): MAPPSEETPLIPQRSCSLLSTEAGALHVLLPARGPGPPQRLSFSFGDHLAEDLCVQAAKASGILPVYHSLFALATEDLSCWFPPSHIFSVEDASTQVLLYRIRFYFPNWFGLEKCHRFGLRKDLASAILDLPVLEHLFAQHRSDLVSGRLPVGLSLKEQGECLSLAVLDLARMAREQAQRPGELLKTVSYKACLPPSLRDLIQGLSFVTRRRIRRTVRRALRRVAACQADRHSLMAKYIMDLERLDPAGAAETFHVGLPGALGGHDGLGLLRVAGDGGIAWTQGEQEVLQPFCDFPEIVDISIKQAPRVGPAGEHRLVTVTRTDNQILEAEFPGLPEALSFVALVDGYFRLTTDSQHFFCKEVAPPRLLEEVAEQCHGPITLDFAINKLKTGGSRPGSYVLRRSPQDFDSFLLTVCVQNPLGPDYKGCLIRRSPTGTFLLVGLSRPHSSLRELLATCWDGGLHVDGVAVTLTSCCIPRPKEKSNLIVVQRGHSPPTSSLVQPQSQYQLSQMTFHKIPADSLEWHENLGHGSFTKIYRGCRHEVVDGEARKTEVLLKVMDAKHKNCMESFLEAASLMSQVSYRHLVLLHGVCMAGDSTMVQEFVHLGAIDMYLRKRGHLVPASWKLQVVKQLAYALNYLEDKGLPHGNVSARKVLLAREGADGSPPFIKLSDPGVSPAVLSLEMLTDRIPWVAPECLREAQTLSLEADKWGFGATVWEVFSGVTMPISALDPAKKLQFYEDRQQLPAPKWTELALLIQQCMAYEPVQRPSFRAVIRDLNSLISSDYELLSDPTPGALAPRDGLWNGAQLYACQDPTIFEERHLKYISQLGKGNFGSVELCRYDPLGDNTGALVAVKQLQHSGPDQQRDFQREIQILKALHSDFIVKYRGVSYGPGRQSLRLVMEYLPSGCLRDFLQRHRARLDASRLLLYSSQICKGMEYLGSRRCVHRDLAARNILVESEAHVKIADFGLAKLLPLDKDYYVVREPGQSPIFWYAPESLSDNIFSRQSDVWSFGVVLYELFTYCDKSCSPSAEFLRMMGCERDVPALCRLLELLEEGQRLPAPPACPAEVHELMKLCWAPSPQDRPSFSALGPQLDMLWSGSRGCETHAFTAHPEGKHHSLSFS
Description: Inhibition of GST-tagged JAK3 kinase

Another test is described as follows: cells. As to conditions: Mus musculus, CTLL-2, 72 h.
Test [2] addresses Tyrosine-protein kinase JAK2 (Homo sapiens, UniProt O60674).
Description: Inhibition of GST-tagged JAK2 kinase
Test [3] relates to BaF3. Nature of the test: cells. To be noted: Mus musculus, BaF3, 72 h.
Description: Antiproliferative activity against mouse BAF3 cells expressing TEL-JAK3 kinase after 72 hrs by alamar blue assay
The subject of test [4] is BaF3. Briefly: cells. As to conditions: Mus musculus, BaF3, 72 h. This is another data set of the same source.
Description: Antiproliferative activity against mouse BAF3 cells expressing TEL-JAK2 kinase after 72 hrs by alamar blue assay

Tyrosine-protein kinase JAK2, sequence (O60674 whole entry): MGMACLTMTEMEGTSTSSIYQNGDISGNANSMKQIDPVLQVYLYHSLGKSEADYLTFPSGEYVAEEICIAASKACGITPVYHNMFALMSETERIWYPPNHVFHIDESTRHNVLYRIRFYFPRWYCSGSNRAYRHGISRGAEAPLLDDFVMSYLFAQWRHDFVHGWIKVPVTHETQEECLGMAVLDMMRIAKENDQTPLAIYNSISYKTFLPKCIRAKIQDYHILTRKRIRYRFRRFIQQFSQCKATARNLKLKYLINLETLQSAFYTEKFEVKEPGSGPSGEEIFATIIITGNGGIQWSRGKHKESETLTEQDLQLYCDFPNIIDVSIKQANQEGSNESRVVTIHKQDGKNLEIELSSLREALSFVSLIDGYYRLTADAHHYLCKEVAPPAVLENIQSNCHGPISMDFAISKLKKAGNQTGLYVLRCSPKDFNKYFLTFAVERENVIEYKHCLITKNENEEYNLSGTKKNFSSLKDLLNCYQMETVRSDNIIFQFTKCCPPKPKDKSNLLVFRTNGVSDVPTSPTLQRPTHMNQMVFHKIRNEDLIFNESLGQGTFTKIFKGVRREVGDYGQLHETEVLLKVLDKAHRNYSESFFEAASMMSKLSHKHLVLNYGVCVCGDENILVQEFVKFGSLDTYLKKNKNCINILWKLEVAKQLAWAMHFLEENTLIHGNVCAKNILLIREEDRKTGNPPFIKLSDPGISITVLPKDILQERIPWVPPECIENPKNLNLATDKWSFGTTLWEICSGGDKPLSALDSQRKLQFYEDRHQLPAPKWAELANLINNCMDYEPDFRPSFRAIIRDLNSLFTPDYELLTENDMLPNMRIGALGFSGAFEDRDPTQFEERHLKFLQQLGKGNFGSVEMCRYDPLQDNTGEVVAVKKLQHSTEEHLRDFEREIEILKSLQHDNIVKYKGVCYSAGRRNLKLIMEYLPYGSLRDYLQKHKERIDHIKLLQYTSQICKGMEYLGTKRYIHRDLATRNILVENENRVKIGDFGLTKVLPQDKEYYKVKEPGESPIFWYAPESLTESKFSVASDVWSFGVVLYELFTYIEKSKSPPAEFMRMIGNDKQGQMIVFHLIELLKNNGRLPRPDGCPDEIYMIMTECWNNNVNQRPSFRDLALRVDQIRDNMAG

One may read the IC50 as the concentration needed to halve the response being measured. Regarding `COc1cc(-c2ccnc(Nc3ccc(N4CCOCC4)cc3)n2)ccc1C(=O)NCC#N`, the 50% inhibitory concentration (IC50) came to 9 nM in test [1]; 245 nM in “cells”; 30 nM in test [2]; 275 nM with BaF3 [3]; 205 nM in the test on BaF3 [4].
For the compound `CS(=O)(=O)Nc1ccc(-c2ccnc(Nc3cccc(CN4CCC(O)CC4)c3)n2)cc1`, the IC50 in test [1] turned out to be 636 nM; in the test “cells”, 6760 nM; in test [2], 12 nM; in the test on BaF3 [3] it was 1940 nM; in the test with BaF3 [4], 771 nM.
The matching figures for `CS(=O)(=O)Nc1ccc(-c2ccnc(Nc3ccc(N4CCOCC4)cc3)n2)cc1`: 351 nM, 489 nM, 4 nM, 3940 nM and 396 nM.
With `COc1cc(-c2ccnc(Nc3ccc(N4CCOCC4)cc3)n2)ccc1N`, the IC50 worked out at 16 nM in test [2] and 5620 nM with BaF3 [4].
In the case of `CS(=O)(=O)Nc1ccc(-c2ccnc(Nc3cccc(CN4CCCC4)c3)n2)cc1`, the IC50 turned out to be 110 nM in test [1]; 569 nM in the test “cells”; 6 nM in test [2]; 240 nM with BaF3 [3]; 234 nM in the test on BaF3 [4].
Consider `c1cc(-c2ccc3[nH]ccc3c2)nc(Nc2ccc(N3CCOCC3)cc2)n1`, for which the figures for the IC50 (in test [2]; in the test with BaF3 [4]) were 33 nM and 7130 nM, respectively.
On the same counts, the results for `O=C(NCc1ccco1)c1ccc(-c2ccnc(Nc3ccc(N4CCOCC4)cc3)n2)cc1` are 202 nM and 5220 nM.
For `CN1CCN(Cc2ccc(Nc3nccc(-c4ccc(NS(C)(=O)=O)cc4)n3)cc2)CC1`, the IC50 was above 1000 nM in test [1]; 1550 nM in “cells”; 18 nM in test [2]; 3430 nM in the test on BaF3 [3]; 1000 nM with BaF3 [4].
The matching figures for `CS(=O)(=O)Nc1ccc(-c2ccnc(Nc3ccc(CN4CCC(O)CC4)cc3)n2)cc1`: 1620 nM, 5610 nM, 16 nM, 2200 nM and 892 nM.
On the same counts, the results for `N#CCC(=O)Nc1cccc(-c2ccnc(Nc3ccc(N4CCOCC4)cc3)n2)c1` are 1760 nM, 18900 nM, 303 nM, above 20000 nM and 10300 nM.
On the same counts, the results for `N#CCNC(=O)c1ccc(-c2ccnc(Nc3ccc(N4CCOCC4)c(F)c3)n2)cc1` are 274 nM, 1260 nM, 116 nM, 3280 nM and 1140 nM.
For `CN(CC#N)C(=O)c1ccc(-c2ccnc(Nc3ccc(N4CCOCC4)cc3)n2)cc1`, the IC50 is 1420 nM in test [1]; 4170 nM in “cells”; 298 nM in test [2]; 16900 nM in the test with BaF3 [3]; 6340 nM in the test with BaF3 [4].
On the same counts, the results for `CS(=O)(=O)Nc1ccc(-c2ccnc(Nc3ccc(CN4CCOCC4)cc3)n2)cc1` are above 1000 nM, 1670 nM, 9 nM, 1940 nM and 896 nM.
As for `c1ccc(-c2ccnc(Nc3ccc(N4CCOCC4)cc3)n2)cc1`, 467 nM corresponded to half-maximal inhibition in test [2] (IC50).
As to `CCN(CC)CCCOc1ccc(Nc2nccc(-c3ccc(C(=O)NCC#N)cc3)n2)cc1`, the IC50 in test [1] was found to be 362 nM; in the test “cells”, 3680 nM; in test [2], 166 nM; in the test with BaF3 [3], 1100 nM; in the test on BaF3 [4], 840 nM.
With `Nc1cccc(-c2ccnc(Nc3ccc(N4CCOCC4)cc3)n2)c1`, the IC50 in test [2] amounted to 322 nM; in the test on BaF3 [4] it was 8520 nM.
Take `N#Cc1ccc(-c2ccnc(Nc3ccc(N4CCOCC4)cc3)n2)cc1`: in the test with BaF3 [4], the IC50 is above 20000 nM.
Regarding `CC(=O)Nc1ccc(-c2ccnc(Nc3ccc(N4CCOCC4)cc3)n2)cc1`, the concentration for half-maximal inhibition (IC50) in test [2] came to 67 nM; in the test on BaF3 [4], 3110 nM.
Regarding `Cc1cc(-c2ccnc(Nc3ccc(N4CCOCC4)cc3)n2)ccc1C(=O)NCC#N`, the IC50 was above 1000 nM in test [1]; 2040 nM in the test “cells”; 65 nM in test [2]; 7570 nM in the test with BaF3 [3]; 2630 nM in the test on BaF3 [4].
With `N#CCNC(=O)c1ccc(-c2ccnc(Nc3ccc(N4CCSCC4)cc3)n2)cc1`, the IC50 was determined as 1510 nM in “cells”, 69 nM in test [2], 6240 nM in the test on BaF3 [3] and 2200 nM in the test with BaF3 [4].
Take `CN1CCN(Cc2cccc(Nc3nccc(-c4ccc(NS(C)(=O)=O)cc4)n3)c2)CC1`: the concentration for half-maximal inhibition (IC50) in test [1] is 960 nM; in the test “cells”, 5180 nM; in test [2], 14 nM; in the test on BaF3 [3] it was 3140 nM; with BaF3 [4], 941 nM.
Turning to `N#CCNC(=O)c1ccc(-c2ccnc(Nc3ccc(CN4CCS(=O)(=O)CC4)cc3)n2)cc1`, the IC50 stood at 7900 nM in “cells”, 52 nM in test [2], 9980 nM in the test on BaF3 [3] and 2040 nM in the test with BaF3 [4].
Take `CS(=O)(=O)Nc1ccc(-c2ccnc(Nc3cccc(CN4CCOCC4)c3)n2)cc1`: the concentration for half-maximal inhibition (IC50) in test [1] is 930 nM; in the test “cells” it was 2660 nM; in test [2] it was 8 nM; in the test on BaF3 [3] it was 1730 nM; in the test with BaF3 [4], 812 nM.
Regarding `N#CCNC(=O)c1ccc(-c2ccnc(Nc3ccc(N4CCOCC4)c(C(F)(F)F)c3)n2)cc1`, the IC50 in test [1] turned out to be 2020 nM; in “cells” it was 3990 nM; in the test on BaF3 [3], 1710 nM; with BaF3 [4] it was 1240 nM.
On the same counts, the results for `N#CCNC(=O)c1ccc(-c2ccnc(Nc3cccc(N4CCOCC4)c3)n2)cc1` are 1880 nM, 3770 nM, 7450 nM and 2560 nM.
For the compound `NS(=O)(=O)c1ccc(-c2ccnc(Nc3ccc(N4CCOCC4)cc3)n2)cc1`, in test [2], the IC50 turned out to be 83 nM.
On to `Cc1cnc(Nc2ccc(N3CCOCC3)cc2)nc1-c1ccc(C(=O)NCC#N)cc1`, for which the concentration for half-maximal inhibition (IC50) in test [1] was 85 nM; in “cells”, 240 nM; in test [2] it was 8 nM; in the test on BaF3 [3] it was 5960 nM; with BaF3 [4], 433 nM.
Consider `CN1CCN(c2ccc(Nc3nccc(-c4ccc(C(=O)NCC#N)cc4)n3)cc2)CC1`, for which the concentration for half-maximal inhibition (IC50) in test [1] was found to be 192 nM; in the test “cells”, 1830 nM; in the test on BaF3 [3] it was 2050 nM; in the test on BaF3 [4], 525 nM.
Consider `Cc1nccn1Cc1ccc(-c2ccnc(Nc3ccc(N4CCOCC4)cc3)n2)cc1`, for which the IC50 was 81 nM in test [2] and 3730 nM in the test with BaF3 [4].
For the compound `Cc1cc(-c2ccnc(Nc3ccc(N4CCOCC4)cc3)n2)cc(C)c1O`, the IC50 stood at 88 nM in test [2] and 3520 nM with BaF3 [4].
With `N#CCC(=O)Nc1ccc(-c2ccnc(Nc3ccc(N4CCOCC4)cc3)n2)cc1`, the values for the IC50 in the test “cells”, in the test with BaF3 [3] and with BaF3 [4] were 915 nM, 4200 nM and 720 nM, respectively.
`CC(C)(C#N)NC(=O)c1ccc(-c2ccnc(Nc3ccc(N4CCOCC4)cc3)n2)cc1`: the IC50 in test [1] is 3910 nM; in test [2], 549 nM; in the test with BaF3 [3], 4250 nM; with BaF3 [4], 3720 nM.
Take `COc1cnc(Nc2ccc(N3CCOCC3)cc2)nc1-c1ccc(C(=O)NCC#N)cc1`: the IC50 in the test “cells” was 6160 nM; in the test on BaF3 [3], above 20000 nM; with BaF3 [4] it was 8500 nM.
For `NC(=O)c1ccc(-c2ccnc(Nc3ccc(N4CCOCC4)cc3)n2)cc1`, the IC50 amounted to 326 nM in test [2] and 5560 nM in the test with BaF3 [4].
